# In patent publication US7825126B2 (The United States of America as represented by the …, priority 2004, dated 2010):
# Like-named read-outs stand apart in the source and are kept apart here.
# Key:
# human A1 receptors [1] = target: T1, human A1 receptors (Homo sapiens, UniProt P30542)
# T1 construct: expressed in transfected cells
# T1 sequence (P30542 1-326): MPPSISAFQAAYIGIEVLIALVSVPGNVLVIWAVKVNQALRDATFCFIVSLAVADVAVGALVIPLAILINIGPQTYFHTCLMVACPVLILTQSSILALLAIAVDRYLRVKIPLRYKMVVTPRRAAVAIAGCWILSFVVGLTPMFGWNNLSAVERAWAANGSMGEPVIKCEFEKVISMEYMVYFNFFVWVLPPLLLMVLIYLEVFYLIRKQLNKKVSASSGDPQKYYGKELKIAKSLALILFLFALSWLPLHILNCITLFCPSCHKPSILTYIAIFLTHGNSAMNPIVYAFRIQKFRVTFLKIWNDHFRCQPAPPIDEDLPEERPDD
# [2] = target: T2, rat A3 adenosine receptor (Rattus norvegicus, UniProt P28647)
# T2 construct: expressed in transfected cells; host or cells: CHO cells
# T2 sequence (P28647 1-320): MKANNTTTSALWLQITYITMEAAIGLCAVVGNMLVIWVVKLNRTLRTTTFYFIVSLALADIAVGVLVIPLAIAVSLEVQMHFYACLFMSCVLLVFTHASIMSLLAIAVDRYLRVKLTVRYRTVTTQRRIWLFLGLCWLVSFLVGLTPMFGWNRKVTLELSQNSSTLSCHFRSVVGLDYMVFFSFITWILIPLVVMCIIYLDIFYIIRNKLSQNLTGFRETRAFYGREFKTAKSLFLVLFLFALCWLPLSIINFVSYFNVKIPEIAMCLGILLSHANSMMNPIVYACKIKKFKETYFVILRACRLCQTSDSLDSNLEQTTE
# [3] = target: T3, human A3 adenosine receptor (Homo sapiens, UniProt P0DMS8); design: expressed in transfected cells; host or cells: CHO cells; conditions: relative to 10 μM Cl-IB-MECA, data from literature (footnotes c, d, e, f); cited from earlier work
# T3 sequence (P0DMS8 1-318): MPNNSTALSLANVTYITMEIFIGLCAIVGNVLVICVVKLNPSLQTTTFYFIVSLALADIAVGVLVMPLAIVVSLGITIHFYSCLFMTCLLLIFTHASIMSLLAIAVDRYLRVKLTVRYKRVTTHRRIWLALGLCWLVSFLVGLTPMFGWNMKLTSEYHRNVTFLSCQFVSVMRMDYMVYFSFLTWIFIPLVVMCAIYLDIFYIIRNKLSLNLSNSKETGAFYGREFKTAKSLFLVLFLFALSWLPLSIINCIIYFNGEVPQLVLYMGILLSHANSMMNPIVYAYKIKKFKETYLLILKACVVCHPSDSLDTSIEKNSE
# [4] = target: T4, human A2B adenosine receptor (hA2BAR) (Homo sapiens, UniProt P29275); conditions: data from literature (footnotes c, f, h); cited from earlier work
# T4 sequence (P29275 1-332): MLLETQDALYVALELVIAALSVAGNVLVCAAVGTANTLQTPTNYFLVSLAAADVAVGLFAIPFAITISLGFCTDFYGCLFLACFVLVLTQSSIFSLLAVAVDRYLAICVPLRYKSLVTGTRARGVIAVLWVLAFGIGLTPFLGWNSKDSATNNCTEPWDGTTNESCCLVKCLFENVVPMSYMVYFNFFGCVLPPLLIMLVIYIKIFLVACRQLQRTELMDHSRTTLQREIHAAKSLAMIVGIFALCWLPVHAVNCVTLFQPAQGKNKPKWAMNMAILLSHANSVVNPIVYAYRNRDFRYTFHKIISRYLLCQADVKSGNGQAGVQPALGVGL
# [5] = target: T2, rat A3 adenosine receptor; test: Binding at rat A3 adenosine receptor ([125I]I-AB-MECA, CHO cell membranes); conditions: rat A3 AR in CHO cells; unit nM printed in b194 only; read-out: Ki(rA3AR)
# Method: (§1) Striatal and forebrain tissues from Wistar rats were homogenized in ice-cold 50 mM Tris-HCl buffer, pH 7.4, using an electric homogenizer. The homogenate was centrifuged at 20,000 g for 10 min at 4° C., and the pellet was washed in fresh buffer. The final pellet was stored at −80° C. until the binding experiments. The protein concentration was measured using the Bradford assay. […] The mixtures were incubated at 37° C. for 60 min. […] Filters were washed three times with 9 ml ice-cold buffer. Radioactivity was determined in a Beckman 5500B γ-counter. Statistical analysis Binding and functional parameters were calculated using Prism 5.0 software (GraphPAD, San Diego, Calif., USA). IC50 values obtained from competition curves were converted to Ki values using the Cheng-Prusoff equation.
# [6] = target: T3, human A3 adenosine receptor; design: expressed in transfected cells; host or cells: CHO cells; conditions: data from literature (footnotes c, d, e, f); read-out: Ki(hA3AR); cited from earlier work
# human A2A receptors [7] = target: T5, human A2A receptors (Homo sapiens, UniProt P29274)
# T5 construct: expressed in transfected cells
# T5 sequence (P29274 whole entry): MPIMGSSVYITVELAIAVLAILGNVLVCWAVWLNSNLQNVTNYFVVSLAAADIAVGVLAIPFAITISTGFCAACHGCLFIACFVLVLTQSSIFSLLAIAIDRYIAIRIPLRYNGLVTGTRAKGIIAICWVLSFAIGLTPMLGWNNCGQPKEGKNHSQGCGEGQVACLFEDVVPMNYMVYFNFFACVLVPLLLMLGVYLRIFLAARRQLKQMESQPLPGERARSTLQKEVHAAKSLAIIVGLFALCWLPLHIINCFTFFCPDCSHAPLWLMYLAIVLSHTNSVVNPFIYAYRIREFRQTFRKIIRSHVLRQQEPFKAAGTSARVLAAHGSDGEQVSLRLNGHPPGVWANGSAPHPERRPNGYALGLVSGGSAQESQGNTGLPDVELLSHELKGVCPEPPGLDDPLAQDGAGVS
# human A1 receptors [8] = target: T1, human A1 receptors; test: Binding at human A1 adenosine receptor ([3H]R-PIA, CHO cell membranes); conditions: mean ± s.e.m., n = 3-5, read-out: Ki(hA1AR)
# Method: (§2) Binding assays at the A1 and A2A receptors. […] Reaction was terminated by filtration with GF/B filters.
# (§3) Statistical analysis Binding and functional parameters were calculated using Prism 5.0 software (GraphPAD, San Diego, Calif., USA). IC50 values obtained from competition curves were converted to Ki values using the Cheng-Prusoff equation.
# [9] = target: T3, human A3 adenosine receptor; test: Cyclic AMP accumulation assay (inhibition of forskolin-stimulated cAMP), CHO cells expressing human A3 adenosine receptor; conditions: for % Activation (hA3AR) at 10 μM: relative to 10 μM Cl-IB-MECA
# Method: (§4) The cyclic AMP accumulation assay was performed as follows. Intracellular cyclic AMP levels were measured with a competitive protein binding method. […] After centrifugation and resuspension in medium, cells were plated in 24-well plates in 1.0 ml medium. […] The reaction was terminated by removing the supernatant, and cells were lysed upon the addition of 200 μL of 0.1 M ice-cold HCl. The cell lysate was resuspended and stored at −20° C. For determination of cyclic AMP production, protein kinase A (PKA) was incubated with [^3H]cyclic AMP (2 nM) in K2HPO4/EDTA buffer (K2HPO4, 150 mM; EDTA, 10 mM), 20 μL of the cell lysate, and 30 μL 0.1 M HCl or 50 μL of cyclic AMP solution (0-16 pmol/200 μL for standard curve). Bound radioactivity was separated by rapid filtration through Whatman GF/C filters and washed once with cold buffer. Bound radioactivity was measured by liquid scintillation spectrometry.
# (§5) Forskolin (10 μM) was used to stimulate cyclic AMP levels.
# human A2A receptors [10] = target: T5, human A2A receptors; test: Binding at human A2A adenosine receptor ([3H]CGS21680, HEK-293 cell membranes); conditions: [3H]CGS 21680; for Ki: mean ± s.e.m., n = 3-5, read-out: Ki(hA2AAR)
# Method: as §2, §3
# [11] = target: T3, human A3 adenosine receptor; test: Binding at human A3 adenosine receptor ([125I]I-AB-MECA, CHO cell membranes); design: expressed in transfected cells; host or cells: CHO cells; conditions: for Ki: [125I]I-AB-MECA, mean ± s.e.m., n = 3-5, read-out: Ki(hA3AR); for Selectivity for the human A3 adenosine receptor in comparison to the A1 adenosine receptor: ratio of Ki hA1 / hA3
# Method: as §1
# [12] = target: T3, human A3 adenosine receptor
# Method: as §4, §5
# [13] = target: T4, human A2B adenosine receptor (hA2BAR); test: Activation of human A2B adenosine receptor at 10 μM; assay type: cell-based; conditions: CHO cells
# [14] = data from literature (footnotes c, d, f, g); read-out: Ki(hA1AR); cited from earlier work
# [15] = rat A3 AR; data from literature (footnotes c, d, f, i); unit nM printed in b194 only; read-out: Ki(rA3AR); cited from earlier work
# [16] = read-out: Ki(hA1AR); data from literature (footnotes c, d, f, g); cited from earlier work
# [17] = 10 μM; data from Ohno et al. (footnote c); cited from earlier work
# [18] = read-out: Ki(hA2AAR); data from literature (footnotes c, d, f, g); cited from earlier work
Compound,"Ki [2, 15]",% Activation (hA3AR) at 10 μM [3],% Activation (hA2BAR) at 10 μM [4],Ki [5],Ki (human A1 receptors [8]),% Activation (hA2BAR) at 10 μM [13],other results
OCC1OC(n2cnc3c(NCc4cccc(I)c4)ncnc32)C(O)C1O (centres unmarked) [Compound 1a],9.5 ± 1.4 nM,46 ± 8%,58%,–,–,–,Ki (human A1 receptors [1]; [14]): 0.0074 ± 0.0017 µM
OCC1OC(n2cnc3c(NCc4cccc(I)c4)nc(Cl)nc32)C(O)C1O (centres unmarked) [Compound 1b],–,0%,16%,–,–,–,"Ki (human A1 receptors [1]; [16]): 0.017 ± 0.002 µM; Ki ([2]; read-out: Ki(rA3AR); rat A3 AR; data from literature (footnotes c, d, f, i); unit nM printed in b194 only; cited from earlier work): 2.7 ± 1.2 nM"
"CNC(=O)[C@@]12C[C@@H]1[C@@H](n1cnc3c(NCc4cccc(I)c4)nc(Cl)nc31)[C@H](O)[C@@H]2O [Compound 5, (1′S,2′R,3′S,4′R,5′S)-[4′-(2-chloro-6-{[(3-iodophenyl)methyl]amino}purin-9-yl)-2′,3′-dihydroxybicyclo[3.1.0]hexyl]-N-methylcarboxamide]",–,100^e %,–,1.1 ± 0.1 nM,–,–,–
CNc1ncnc2c1ncn2C1OC(CO)C(O)C1O (centres unmarked) [Compound 6],6400 ± 1600 nM,–,16%,–,–,–,Ki (human A1 receptors [1]; [16]): 6 ± 2 µM; Ki [6]: 0.0093 ± 0.0004 µM; % displ. at 10 μM (hA2AAR) (human A2A receptors [7]; [17]): 17%
CNc1nc(N)nc2c1ncn2C1OC(CO)C(O)C1O (centres unmarked) [Compound 7],> 10000 nM,98 ± 3%,11%,–,–,–,Ki (human A1 receptors [1]; [16]): 0.48 ± 0.02 µM; Ki [6]: 0.039 ± 0.002 µM; % displ. at 10 μM (hA2AAR) (human A2A receptors [7]; [17]): 15%
OCC1OC(n2cnc3c(NC4CC4c4ccccc4)ncnc32)C(O)C1O (centres unmarked) [Compound 10],400 ± 30 nM,101 ± 5%,26%,–,–,–,"Ki (human A2A receptors [7]; data from literature (footnotes c, d, f, g); read-out: Ki(hA2AAR); cited from earlier work): 2.5 ± 0.7 µM"
Cc1ccccc1CNc1ncnc2c1ncn2C1OC(CO)C(O)C1O (centres unmarked) [Compound 11],38 ± 15 nM,100 ± 3%,–,–,–,–,Ki (human A1 receptors [1]; [16]): 0.039 ± 0.008 µM; Ki [6]: 0.047 ± 0.011 µM; Ki (human A2A receptors [7]; [18]): 0.76 ± 0.11 µM
OCC1OC(n2cnc3c(NCc4cccnc4)ncnc32)C(O)C1O (centres unmarked) [Compound 12],290 ± 70 nM,100 ± 6%,–,–,–,–,Ki (human A1 receptors [1]; [14]): 0.042 ± 0.004 µM; Ki [6]: 0.0045 ± 0.0011 µM; Ki (human A2A receptors [7]; [18]): 2.3 ± 0.12 µM
OCC1OC(n2cnc3c(NCC(c4ccccc4)c4ccccc4)ncnc32)C(O)C1O (centres unmarked) [Compound 13],540 ± 200 nM,0%,70%,–,–,–,–
CNC(=O)[C@@]12C[C@@H]1[C@@H](n1cnc3c(NC)nc(Cl)nc31)[C@H](O)[C@@H]2O [Compound 14],–,–,–,160 ± 30 nM,2.1 ± 1.7 µM,–,% Activation (hA3AR) at 10 μM [9]: 104 ± 7%; % displ. at 10 μM (hA2AAR) (human A2A receptors [10]): 6%
"CNC(=O)C12CC1C(n1cnc3c(NCc4cccc(Br)c4)nc(Cl)nc31)C(O)C2O (stereo not drawn) [Compound 17, (1′S,2′R,3′S,4′S,5′S)-4′-[6-(3-Bromobenzylamino)-2-chloro-purin-9-yl]-2′,3′-dihydroxy-bicyclo[3.1.0]hexane-1′-carboxylic acid methyl amide]",–,–,–,0.76 ± 0.08 nM,0.27 ± 0.07 µM,38%,Ki [11]: 0.00038 µM; % Activation (hA3AR) at 10 μM [12]: 100 ± 11%; Ki (human A2A receptors [10]): 1.3 ± 0.1 µM
"CNC(=O)[C@@]12C[C@@H]1[C@H](n1cnc3c(NCc4cccc(Cl)c4)nc(Cl)nc31)[C@H](O)[C@@H]2O [Compound 18, (1′S,2′R,3′S,4′S,5′S)-4′-[6-(3-Chlorobenzylamino)-2-chloro-purin-9-yl]-2′,3′-dihydroxy-bicyclo[3.1.0]hexane-1′-carboxylic acid methylamide]",–,–,–,1 ± 0.1 nM,0.26 ± 0.06 µM,38%,Ki (human A2A receptors [10]): 2.3 ± 0.1 µM
"CNC(=O)C12CC1C(n1cnc3c(NCc4cc(Cl)ccc4OCc4ccccc4)nc(Cl)nc31)C(O)C2O (stereo not drawn) [Compound 24, (1′S,2′R,3′S,4′S,5′S)-4′-[6-(5-Chloro-2-benzyloxy-benzylamino)-2-chloro-purin-9-yl]-2′,3′-dihydroxy-bicyclo[3.1.0]hexane-1′-carboxylic acid methylamide]",–,–,–,11 ± 3 nM,1.2 ± 0.2 µM,49%,Ki [11]: 0.0052 ± 0.0013 µM; % Activation (hA3AR) at 10 μM [9]: 110 ± 10%; Ki (human A2A receptors [10]): 0.85 ± 0.16 µM
"CNC(=O)C12CC1C(n1cnc3c(NCc4cc(OC)ccc4OC)nc(Cl)nc31)C(O)C2O (stereo not drawn) [Compound 26, (1′S,2′R,3′S,4′S,5′S)-4′-[6-(2,5-Dimethoxy-benzylamino)-2-chloro-purin-9-yl]-2′,3′-dihydroxy-bicyclo[3.1.0]hexane-1′-carboxylic acid methylamide]",–,–,–,0.87 ± 0.24 nM,1.6 ± 0.2 µM,0%,Ki [11]: 0.0014 ± 0.0002 µM; Selectivity for the human A3 adenosine receptor in comparison to the A1 adenosine receptor [11]: 1200 fold; % Activation (hA3AR) at 10 μM [9]: 107 ± 10%; % displ. at 10 μM (hA2AAR) (human A2A receptors [10]): 52%
CNC(=O)[C@@]12C[C@@H]1[C@@H](n1cnc3c(NCC(c4ccccc4)c4ccccc4)nc(Cl)nc31)[C@H](O)[C@@H]2O [Compound 34],–,–,–,10 ± 4 nM,1.3 ± 0.1 µM,46%,"affinity at the human A3 adenosine receptor (in words) ([11]; 2-chloro, 5′-N-methylamide substituted compounds): subnanomolar; Ki [11]: 0.00069 ± 2e-05 µM; Selectivity for the human A3 adenosine receptor in comparison to the A1 adenosine receptor [11]: 1900 fold; % Activation (hA3AR) at 10 μM [12]: 107 ± 9%; agonist efficacy at the A3 adenosine receptor (inhibition of forskolin-stimulated adenylate cyclase) ([9]; concentration of 10 μM): agonist; Ki (human A2A receptors [10]): 1.6 ± 0.1 µM"
